Data from US11492346B2, “Benzisoxazole sulfonamide derivatives” (Pfizer Inc., priority 2019, dated 2022).
Like-named read-outs stand apart in the source and are kept apart here.

Assays:
Type in all cases: biochemical
[1] = target: KAT6A (Homo sapiens (Human), UniProt Q92794); assay: KAT assay (SAMDI mass spectrometry), KAT6A;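 also: Baculovirus-expressed KAT6A acetylating histone H3 (1-21) peptide (2 µM), 30-60 min at room temperature, % product conversion fitted to Morrison equation for tight-binding competitive inhibitors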
[2] = target: KAT6B (Homo sapiens (Human), UniProt Q8WYB5); assay: KAT assay (SAMDI mass spectrometry), KAT6B
Sequence of KAT6B (Q8WYB5 whole entry): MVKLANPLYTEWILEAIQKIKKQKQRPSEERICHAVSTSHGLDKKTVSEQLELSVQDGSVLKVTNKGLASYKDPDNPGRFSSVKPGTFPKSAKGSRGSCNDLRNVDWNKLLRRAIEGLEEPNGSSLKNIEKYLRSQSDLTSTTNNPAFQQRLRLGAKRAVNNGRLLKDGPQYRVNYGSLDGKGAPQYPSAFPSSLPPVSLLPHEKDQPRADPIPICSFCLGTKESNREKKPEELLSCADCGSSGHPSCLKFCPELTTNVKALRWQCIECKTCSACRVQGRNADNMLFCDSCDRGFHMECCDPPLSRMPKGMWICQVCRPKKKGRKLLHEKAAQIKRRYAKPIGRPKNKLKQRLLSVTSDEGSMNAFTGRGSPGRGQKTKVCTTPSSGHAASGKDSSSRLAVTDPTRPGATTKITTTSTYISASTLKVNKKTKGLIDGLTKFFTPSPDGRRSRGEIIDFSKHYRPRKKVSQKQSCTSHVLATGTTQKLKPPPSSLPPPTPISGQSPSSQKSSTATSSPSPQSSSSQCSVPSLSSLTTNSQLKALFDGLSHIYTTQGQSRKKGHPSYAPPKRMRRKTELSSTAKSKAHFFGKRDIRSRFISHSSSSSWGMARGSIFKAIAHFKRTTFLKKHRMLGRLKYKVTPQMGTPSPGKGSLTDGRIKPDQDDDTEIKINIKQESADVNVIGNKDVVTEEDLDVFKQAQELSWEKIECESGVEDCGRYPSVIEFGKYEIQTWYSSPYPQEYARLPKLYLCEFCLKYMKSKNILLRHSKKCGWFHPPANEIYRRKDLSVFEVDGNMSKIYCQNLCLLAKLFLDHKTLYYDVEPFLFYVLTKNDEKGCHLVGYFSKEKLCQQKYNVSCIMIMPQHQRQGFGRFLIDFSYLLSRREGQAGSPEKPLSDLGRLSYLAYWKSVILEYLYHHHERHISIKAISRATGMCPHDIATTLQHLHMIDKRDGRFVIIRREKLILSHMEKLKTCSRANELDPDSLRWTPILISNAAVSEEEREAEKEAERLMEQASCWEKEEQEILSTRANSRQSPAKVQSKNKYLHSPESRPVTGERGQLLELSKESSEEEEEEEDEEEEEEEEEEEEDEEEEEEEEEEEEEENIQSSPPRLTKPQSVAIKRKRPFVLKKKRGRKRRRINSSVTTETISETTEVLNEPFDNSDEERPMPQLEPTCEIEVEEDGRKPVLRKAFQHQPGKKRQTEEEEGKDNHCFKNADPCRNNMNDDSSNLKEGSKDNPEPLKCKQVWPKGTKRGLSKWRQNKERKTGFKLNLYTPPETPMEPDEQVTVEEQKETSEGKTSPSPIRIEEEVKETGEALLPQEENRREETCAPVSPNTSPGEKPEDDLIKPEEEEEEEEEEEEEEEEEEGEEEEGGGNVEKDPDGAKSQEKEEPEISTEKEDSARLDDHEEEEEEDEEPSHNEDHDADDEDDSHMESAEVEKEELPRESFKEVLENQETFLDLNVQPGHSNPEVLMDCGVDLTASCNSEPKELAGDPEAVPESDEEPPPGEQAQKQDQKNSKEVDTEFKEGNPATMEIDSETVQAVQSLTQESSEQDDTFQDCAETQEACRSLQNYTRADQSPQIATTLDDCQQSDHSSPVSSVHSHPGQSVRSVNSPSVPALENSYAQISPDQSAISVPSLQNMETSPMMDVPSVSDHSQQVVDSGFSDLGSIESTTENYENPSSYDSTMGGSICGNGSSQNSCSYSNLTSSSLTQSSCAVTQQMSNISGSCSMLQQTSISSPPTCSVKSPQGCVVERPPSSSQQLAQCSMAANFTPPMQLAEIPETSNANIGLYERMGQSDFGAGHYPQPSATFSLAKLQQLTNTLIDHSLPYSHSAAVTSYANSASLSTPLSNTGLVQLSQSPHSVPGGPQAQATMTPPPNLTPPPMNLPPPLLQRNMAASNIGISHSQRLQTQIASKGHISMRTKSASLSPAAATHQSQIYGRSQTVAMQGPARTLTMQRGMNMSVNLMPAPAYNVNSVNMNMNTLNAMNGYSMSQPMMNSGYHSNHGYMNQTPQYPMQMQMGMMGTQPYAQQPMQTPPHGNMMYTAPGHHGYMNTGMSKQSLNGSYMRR

[3] = target: KAT5 (Homo sapiens (Human), UniProt Q92993); assay: KAT assay (SAMDI mass spectrometry), KAT5; settings: read-out: KAT5 Ki at 1 μM AcCoA;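 also: Baculovirus-expressed KAT5 acetylating a histone H4 peptide at room temperature, read as percent conversion to product, Ki from a Morrison tight-binding competitive fit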
Sequence of KAT5 (Q92993 whole entry): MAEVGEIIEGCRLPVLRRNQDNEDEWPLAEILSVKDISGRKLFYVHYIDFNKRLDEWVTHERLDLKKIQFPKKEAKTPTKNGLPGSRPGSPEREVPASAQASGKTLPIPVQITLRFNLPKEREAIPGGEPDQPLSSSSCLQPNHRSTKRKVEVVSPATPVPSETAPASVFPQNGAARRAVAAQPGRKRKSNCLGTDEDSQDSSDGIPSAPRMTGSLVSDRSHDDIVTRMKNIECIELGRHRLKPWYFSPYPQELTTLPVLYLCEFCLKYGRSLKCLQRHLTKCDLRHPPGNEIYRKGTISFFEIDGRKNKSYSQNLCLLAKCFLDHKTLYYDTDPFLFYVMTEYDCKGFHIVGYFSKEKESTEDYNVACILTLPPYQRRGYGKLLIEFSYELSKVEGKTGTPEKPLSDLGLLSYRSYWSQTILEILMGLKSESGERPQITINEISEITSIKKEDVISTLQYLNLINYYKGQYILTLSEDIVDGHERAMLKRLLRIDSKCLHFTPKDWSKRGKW

[4] = target: KAT7 (Homo sapiens (Human), UniProt O95251); assay: KAT assay (SAMDI mass spectrometry), KAT7;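 also: Baculovirus-expressed enzyme acetylating a histone peptide at room temperature, percent conversion from product and substrate peak areas, Ki from a Morrison tight-binding competitive fit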
Sequence of KAT7 (O95251 whole entry): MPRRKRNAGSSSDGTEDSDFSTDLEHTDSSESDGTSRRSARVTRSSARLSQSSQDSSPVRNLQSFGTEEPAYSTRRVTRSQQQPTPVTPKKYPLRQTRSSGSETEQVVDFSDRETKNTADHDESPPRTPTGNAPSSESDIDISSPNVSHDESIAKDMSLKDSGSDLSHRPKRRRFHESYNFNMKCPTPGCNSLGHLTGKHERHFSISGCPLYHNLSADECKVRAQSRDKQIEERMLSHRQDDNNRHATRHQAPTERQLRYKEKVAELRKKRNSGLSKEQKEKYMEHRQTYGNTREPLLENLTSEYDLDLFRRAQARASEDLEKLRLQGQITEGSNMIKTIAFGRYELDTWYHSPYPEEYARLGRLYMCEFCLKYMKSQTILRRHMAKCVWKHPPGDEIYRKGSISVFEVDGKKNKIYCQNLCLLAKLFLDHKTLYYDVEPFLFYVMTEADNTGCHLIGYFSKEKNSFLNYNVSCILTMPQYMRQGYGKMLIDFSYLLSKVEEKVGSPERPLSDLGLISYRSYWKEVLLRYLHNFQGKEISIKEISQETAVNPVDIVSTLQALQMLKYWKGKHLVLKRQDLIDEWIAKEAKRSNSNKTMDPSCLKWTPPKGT

[5] = target: KAT8 (Homo sapiens (Human), UniProt Q9H7Z6); assay: KAT assay (SAMDI mass spectrometry), KAT8; settings: read-out: KAT8 Ki at 1 μM AcCoA
Sequence of KAT8 (Q9H7Z6 whole entry): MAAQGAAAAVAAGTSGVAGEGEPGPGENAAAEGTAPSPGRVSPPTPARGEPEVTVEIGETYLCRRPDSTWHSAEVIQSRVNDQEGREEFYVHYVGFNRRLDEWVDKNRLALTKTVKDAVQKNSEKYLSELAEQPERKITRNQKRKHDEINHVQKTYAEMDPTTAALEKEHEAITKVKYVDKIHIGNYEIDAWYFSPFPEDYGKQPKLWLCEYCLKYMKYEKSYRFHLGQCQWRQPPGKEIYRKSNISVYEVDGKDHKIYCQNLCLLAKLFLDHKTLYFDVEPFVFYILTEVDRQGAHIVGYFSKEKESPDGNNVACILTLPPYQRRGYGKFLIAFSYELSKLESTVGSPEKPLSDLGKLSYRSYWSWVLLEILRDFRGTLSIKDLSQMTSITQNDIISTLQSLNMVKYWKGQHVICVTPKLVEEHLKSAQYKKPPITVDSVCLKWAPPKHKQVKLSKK

[6] = read-out: KAT6a Ki at 1 μM AcCoA, 1 μM AcCoA
[7] = read-out: KAT6a Ki at 10 μM AcCoA, 10 μM AcCoA
[8] = 25 μM AcCoA, read-out: KAT6b Ki at 25 μM AcCoA
[9] = read-out: KAT6b Ki at 1 μM AcCoA, 1 μM AcCoA
[10] = read-out: KAT7 Ki at 1 μM AcCoA

Row | SMILES | Ki [1, 6] | Ki [1, 7] | Ki [2, 8] | Ki [2, 9] | Ki [3] | Ki [4, 10] | Ki [5] | Ki ([1]; KAT6a Ki at 1 μM AcCoA, 1 μM AcCoA) | Ki ([1]; KAT6a Ki at 10 μM AcCoA, 10 μM AcCoA) | Ki ([4]; KAT7 Ki at 1 μM AcCoA)
1 | CCc1ccc(OC)c(S(=O)(=O)Nc2noc3cc(Cn4cccn4)cc(OC)c23)c1 [Example 1, 5-ethyl-2-methoxy-N-{4-methoxy-6-[(1H-pyrazol-1-yl)methyl]-1,2-benzoxazol-3-yl}benzene-1-sulfonamide] | 0.55 nM | 0.43 nM | 1.14 nM | 0.68 nM | 120 nM | 50 nM | 110 nM | – | – | –
2 | COc1cc(Br)cc(OC)c1S(=O)(=O)Nc1noc2cc(Cn3cccn3)cc(OC)c12 [Example 8] | 1.54 nM | 3.23 nM | 6.63 nM | 5.74 nM | 1710 nM | 60 nM | 2870 nM | – | – | –
3 | COCc1ccc(OC)c(S(=O)(=O)Nc2noc3cc(Cn4cccn4)cc(OC)c23)c1 [Example 12] | 1.82 nM | 1.7 nM | 2.14 nM | 1.88 nM | 1170 nM | 920 nM | 1070 nM | – | – | –
4 | CCc1cc(S(=O)(=O)Nc2noc3cc(Cn4cccn4)cc(OC)c23)c(OC)cc1OC [Example 15] | 0.65 nM | 0.35 nM | 0.6 nM | – | 70 nM | 30 nM | 170 nM | – | – | –
5 | COc1cc2c(cc1S(=O)(=O)Nc1noc3cc(Cn4cccn4)cc(OC)c13)CCCC2 [Example 20] | 0.34 nM | 0.87 nM | 4.08 nM | 1.78 nM | 150 nM | – | 470 nM | – | – | –
6 | CCc1ccc(OC)c(S(=O)(=O)Nc2noc3cc(Cn4cccn4)c(F)cc23)c1 [Example 32] | 1.4 nM | – | 2.1 nM | – | – | 60 nM | – | – | – | –
7 | COc1ccccc1S(=O)(=O)Nc1noc2cc(Cn3cccn3)ccc12 [Example 34] | 30 nM | – | 4.2 nM | – | – | 1200 nM | – | – | – | –
8 | COc1cc2c(cc1S(=O)(=O)Nc1noc3cc(Cn4cccn4)cc(OC)c13)CCCO2 [Example 42] | 0.72 nM | – | 0.48 nM | – | – | 160 nM | – | – | – | –
9 | COc1ccc(O)c(S(=O)(=O)Nc2noc3cc(Cn4cccn4)cc(OC)c23)c1 [Example 83] | 13.7 nM | 7.76 nM | – | – | – | 780 nM | – | – | – | –
10 | COc1ccc(S(=O)(=O)Nc2noc3cc(Cn4cccn4)cc(OC)c23)c(C)c1F [Example 85] | 13.3 nM | 8.77 nM | – | – | – | 1140 nM | – | – | – | –
11 | COc1cc(Cn2cccn2)cc2onc(NS(=O)(=O)c3cc(F)c(F)cc3F)c12 [Example 86] | 28.9 nM | 7.11 nM | – | – | – | 370 nM | – | – | – | –
12 | COc1cccc(OC)c1S(=O)(=O)Nc1noc2cc(C(O)c3ccccn3)cc(OC)c12 (stereo not shown) [Example 106, N-{6-[hydroxy(pyridin-2-yl)methyl]-4-methoxy-1,2-benzoxazol-3-yl}-2,6-dimethoxybenzenesulfonamide] | 35 nM | – | – | – | – | 1900 nM | – | – | – | –
13 | COc1cccc(OC)c1S(=O)(=O)Nc1noc2cc(Cc3cnccn3)cc(OC)c12 [Example 111, 2,6-dimethoxy-N-[4-methoxy-6-(pyrazin-2-ylmethyl)-1,2-benzoxazol-3-yl]benzenesulfonamide] | 13 nM | – | – | – | – | 390 nM | – | – | – | –
14 | COc1cccc(OC)c1S(=O)(=O)Nc1noc2cc(Cc3ccon3)cc(OC)c12 [Example 114] | 1.9 nM | – | 2 nM | – | – | 220 nM | – | – | – | –
15 | COc1cccc(OC)c1S(=O)(=O)Nc1noc2cc(Cc3cc[nH]n3)cc(OC)c12 [Example 119] | 21 nM | 13 nM | – | – | – | 650 nM | – | – | – | –
16 | COc1cccc(OC)c1S(=O)(=O)Nc1noc2cc(Cc3cnoc3)cc(OC)c12 [Example 122] | 164 nM | 25 nM | – | – | – | 7400 nM | – | – | – | –
17 | COc1cccc(OC)c1S(=O)(=O)Nc1noc2cc(C(O)c3cnccn3)cc(OC)c12 (stereo not shown) [Example 123] | 138 nM | – | – | – | – | 4600 nM | – | – | – | –
18 | COc1ccccc1S(=O)(=O)Nc1noc2cc(Cn3cccn3)cc(C3CC3)c12 [Example 130] | 0.77 nM | – | – | – | – | 100 nM | – | – | – | –
19 | Cc1ccc(S(=O)(=O)Nc2noc3cc(Cn4cccn4)c(C)cc23)cc1C [Example 131] | 28.3 nM | – | – | – | – | 662 nM | – | – | – | –
20 | COc1ccccc1S(=O)(=O)Nc1noc2cc(Cn3nccn3)cc(OC)c12 [Example 133] | 2.9 nM | – | – | – | – | 19.2 nM | – | – | – | –

The next lines start with the values.

Row | Ki [1, 6] | Ki [1, 7] | Ki [2, 8] | Ki [2, 9] | Ki [3] | Ki [4, 10] | Ki [5] | Ki ([1]; KAT6a Ki at 1 μM AcCoA, 1 μM AcCoA) | Ki ([1]; KAT6a Ki at 10 μM AcCoA, 10 μM AcCoA) | Ki ([4]; KAT7 Ki at 1 μM AcCoA) | SMILES
21 | 3.79 nM | 1.54 nM | – | 8.63 nM | 9790 nM | 1720 nM | 17400 nM | – | – | – | COc1cccc(OC)c1S(=O)(=O)Nc1noc2cc(Cn3nccc3C)cc(OC)c12 [Example 3, 2,6-dimethoxy-N-{4-methoxy-6-[(5-methyl-1H-pyrazol-1-yl)methyl]-1,2-benzoxazol-3-yl}benzene-1-sulfonamide]
22 | 1.11 nM | 1.38 nM | – | 2.68 nM | 530 nM | 80 nM | 660 nM | – | – | – | COc1ccc(S(=O)(=O)Nc2noc3cc(Cn4cccn4)cc(OC)c23)c(OC)c1 [Example 5]
23 | 1.5 nM | 2.32 nM | – | 2.5 nM | 980 nM | 120 nM | 3320 nM | – | – | – | COc1cccc(F)c1S(=O)(=O)Nc1noc2cc(Cn3cccn3)cc(OC)c12 [Example 6]
24 | 21 nM | – | – | 28.3 nM | 4530 nM | 230 nM | 4460 nM | – | – | – | COc1cccc(OC)c1S(=O)(=O)Nc1noc2cc(Cn3cc(F)cn3)cc(OC)c12 [Example 7]
25 | 2.72 nM | 4.65 nM | – | 2.27 nM | 60200 nM | 9320 nM | 19400 nM | – | – | – | COc1cccc(OC)c1S(=O)(=O)Nc1noc2cc(Cn3cccn3)cc(OC(C)C)c12 [Example 10]
26 | 2.86 nM | 5.57 nM | – | 14.6 nM | 12500 nM | 5960 nM | 3260 nM | – | – | – | COc1cccc(OC)c1S(=O)(=O)Nc1noc2cc(Cn3cccn3)cc(OC3CC3)c12 [Example 11]
27 | 1.12 nM | 0.49 nM | 1.05 nM | – | 270 nM | 50 nM | 420 nM | – | – | – | COc1cc(OC)c(S(=O)(=O)Nc2noc3cc(Cn4cccn4)cc(OC)c23)c(OC)c1 [Example 14]
28 | 0.32 nM | – | 0.89 nM | – | – | 56 nM | – | – | – | – | COc1cccc(OC)c1S(=O)(=O)Nc1noc2cc(Cn3cccn3)c(C3CC3)cc12 [Example 31]
29 | 0.74 nM | – | 0.26 nM | – | – | 8 nM | – | – | – | – | COc1cc2c(NS(=O)(=O)c3c(OC)cccc3OC)noc2cc1Cn1cccn1 [Example 39]
30 | 0.36 nM | – | 0.36 nM | – | – | 230 nM | – | – | – | – | COc1cccc(OC)c1S(=O)(=O)Nc1noc2cc(Cn3cccn3)c(OC(F)F)cc12 [Example 41]
31 | 12 nM | – | 43 nM | – | – | 630 nM | – | – | – | – | COCc1ccc(OC)c(S(=O)(=O)Nc2noc3cc(Cn4cccn4)c(F)cc23)c1 [Example 44]
32 | 0.3 nM | 0.51 nM | – | – | – | 150 nM | – | – | – | – | COc1ccc(O)c(OC)c1S(=O)(=O)Nc1noc2cc(Cn3cccn3)cc(OC)c12 [Example 103, 3-hydroxy-2,6-dimethoxy-N-{4-methoxy-6-[(1H-pyrazol-1-yl)methyl]-1,2-benzoxazol-3-yl}benzene-1-sulfonamide]
33 | 6.11 nM | 3.89 nM | – | – | – | 2060 nM | – | – | – | – | COc1cccc(O)c1S(=O)(=O)Nc1noc2cc(Cn3cccn3)cc(OC)c12 [Example 104, 2-hydroxy-6-methoxy-N-{4-methoxy-6-[(1H-pyrazol-1-yl)methyl]-1,2-benzoxazol-3-yl}benzene-1-sulfonamide]
34 | 3.08 nM | 6.28 nM | – | – | – | 230 nM | – | – | – | – | COc1cccc(OC)c1S(=O)(=O)Nc1noc2cc(Cn3cc(O)cn3)cc(OC)c12 [Example 105, N-{6-[(4-hydroxy-1H-pyrazol-1-yl)methyl]-4-methoxy-1,2-benzoxazol-3-yl}-2,6-dimethoxybenzene-1-sulfonamide]
35 | 1.7 nM | 2.6 nM | 2.9 nM | – | – | 370 nM | – | – | – | – | COc1cccc(OC)c1S(=O)(=O)Nc1noc2cc(Cc3ccccn3)cc(OC)c12 [Example 107, 2,6-dimethoxy-N-[4-methoxy-6-(pyridin-2-ylmethyl)-1,2-benzoxazol-3-yl]benzenesulfonamide]
36 | – | – | 8.8 nM | – | – | – | – | 2.5 nM | 2.1 nM | 230 nM | COc1cccc(OC)c1S(=O)(=O)Nc1noc2cc(Cc3ncco3)cc(OC)c12 [Example 110, 2,6-dimethoxy-N-[4-methoxy-6-(1,3-oxazol-2-ylmethyl)-1,2-benzoxazol-3-yl]benzenesulfonamide]
37 | 3 nM | – | 25 nM | – | – | 95 nM | – | – | – | – | COc1cccc(OC)c1S(=O)(=O)Nc1noc2cc(Cc3ncccn3)cc(OC)c12 [Example 116]
38 | 700 nM | – | – | – | – | 6290 nM | – | – | – | – | COc1cccc(OC)c1S(=O)(=O)Nc1noc2cc(Cc3cnn(C)c3)cc(OC)c12 [Example 124]
39 | 8.6 nM | – | – | – | – | 137 nM | – | – | – | – | COc1cccc(OC)c1S(=O)(=O)Nc1noc2cc(Cc3cocn3)cc(OC)c12 [Example 127]
40 | 0.54 nM | 0.59 nM | 1.2 nM | – | – | 49 nM | – | – | – | – | COc1cccc(OC)c1S(=O)(=O)Nc1noc2cc(Cn3cccn3)c(F)c(OC)c12 [Example 128, N-{5-fluoro-4-methoxy-6-[(1H-pyrazol-1-yl)methyl]-1,2-benzoxazol-3-yl}-2,6-dimethoxybenzene-1-sulfonamide]
41 | 0.33 nM | – | – | – | – | 10.6 nM | – | – | – | – | COc1ccccc1S(=O)(=O)Nc1noc2cc(Cn3cccn3)c(F)c(OC)c12 [Example 129]
42 | 4.1 nM | – | – | – | – | 124 nM | – | – | – | – | COc1ccccc1S(=O)(=O)Nc1noc2cc(Cn3cccn3)c(C)cc12 [Example 132]
